The values below come from ChEMBL document CHEMBL1201862, “PubChem BioAssay data set” (2004).

“And” between values parts separate entries of the source, which are not always exact repeats. Equal entries are not always repeated. The source made the active and inactive calls. A value given as a limit tells only on which side of the number the result lay.

Targets include Cytochrome P450 3A4 (Homo sapiens, UniProt P08684); Cytochrome P450 2C9 (Homo sapiens, UniProt P11712); Cytochrome P450 2D6 (Homo sapiens, UniProt P10635).
The target in test [1] is T1, Heat shock factor protein 1 (Mus musculus, UniProt P38532).
T1 sequence (P38532 whole entry): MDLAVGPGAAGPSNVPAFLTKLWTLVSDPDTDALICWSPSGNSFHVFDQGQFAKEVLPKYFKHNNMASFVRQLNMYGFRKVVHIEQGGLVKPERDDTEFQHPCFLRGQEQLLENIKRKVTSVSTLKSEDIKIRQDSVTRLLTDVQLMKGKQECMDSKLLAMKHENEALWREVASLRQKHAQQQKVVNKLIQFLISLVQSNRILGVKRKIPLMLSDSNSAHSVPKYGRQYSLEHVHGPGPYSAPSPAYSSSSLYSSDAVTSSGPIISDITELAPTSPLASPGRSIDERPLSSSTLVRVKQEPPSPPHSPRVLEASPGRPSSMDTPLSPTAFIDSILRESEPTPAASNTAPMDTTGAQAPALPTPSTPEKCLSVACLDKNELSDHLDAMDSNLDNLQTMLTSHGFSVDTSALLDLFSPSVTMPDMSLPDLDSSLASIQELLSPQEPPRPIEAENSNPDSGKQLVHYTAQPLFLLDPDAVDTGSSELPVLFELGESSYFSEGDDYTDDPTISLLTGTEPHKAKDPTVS
In words: decrease of HSF1-responsive luciferase luminescence – cell-based, NIH3T3, dose retest, confirmation (AID 2382).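 Also: NIH3T3 fibroblasts with HSF1-driven luciferase reporter stressed by proteasome inhibitor MG132; luminescence from HSF1-driven luciferase expression after 8 hours of MG132 stress.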 The class given is functional.

The target in test [2] is T2, Corticotropin-releasing factor receptor 2/Corticotropin-releasing factor-binding protein (Homo sapiens, UniProt P24387+Q13324).
T2 sequence (Q13324 whole entry): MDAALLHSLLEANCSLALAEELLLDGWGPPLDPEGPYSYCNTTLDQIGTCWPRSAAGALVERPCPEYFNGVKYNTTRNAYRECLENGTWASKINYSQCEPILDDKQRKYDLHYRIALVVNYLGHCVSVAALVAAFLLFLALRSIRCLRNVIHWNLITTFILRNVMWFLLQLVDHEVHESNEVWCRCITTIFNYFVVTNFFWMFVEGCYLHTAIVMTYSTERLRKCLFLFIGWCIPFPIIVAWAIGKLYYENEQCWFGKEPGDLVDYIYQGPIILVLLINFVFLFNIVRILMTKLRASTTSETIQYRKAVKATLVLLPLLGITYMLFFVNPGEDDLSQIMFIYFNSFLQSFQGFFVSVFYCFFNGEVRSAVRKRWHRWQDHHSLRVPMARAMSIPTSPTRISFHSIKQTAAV
T2 sequence (P24387 whole entry): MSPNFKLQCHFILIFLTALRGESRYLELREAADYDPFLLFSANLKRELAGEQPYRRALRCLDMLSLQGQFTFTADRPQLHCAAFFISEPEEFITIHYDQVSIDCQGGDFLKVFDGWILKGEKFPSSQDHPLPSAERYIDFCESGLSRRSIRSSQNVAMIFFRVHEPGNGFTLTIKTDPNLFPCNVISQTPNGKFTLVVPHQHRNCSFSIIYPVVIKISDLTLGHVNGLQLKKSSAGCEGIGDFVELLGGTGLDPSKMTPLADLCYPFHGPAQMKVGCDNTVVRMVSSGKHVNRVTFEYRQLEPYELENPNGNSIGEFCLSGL
In words: activators of CRF receptor 2 with binding protein – uHTS hits, confirmation (AID 602473). The test is classed as functional. To be noted: read-out: EC50_Mean.

Test [3] deals with T2, Corticotropin-releasing factor receptor 2/Corticotropin-releasing factor-binding protein. In words: Dose Response confirmation of uHTS hits for small molecule antagonists of the CRF-binding protein and CRF-R2 receptor complex. The test is classed as functional. Conditions: read-out: IC50_Mean.
The target in the next test is T3, Cytochrome P450 1A2 (Homo sapiens, UniProt P05177).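 Also: PubChem cytochrome P450 panel assay, CYP1A2 panel member.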
T3 sequence (P05177 whole entry): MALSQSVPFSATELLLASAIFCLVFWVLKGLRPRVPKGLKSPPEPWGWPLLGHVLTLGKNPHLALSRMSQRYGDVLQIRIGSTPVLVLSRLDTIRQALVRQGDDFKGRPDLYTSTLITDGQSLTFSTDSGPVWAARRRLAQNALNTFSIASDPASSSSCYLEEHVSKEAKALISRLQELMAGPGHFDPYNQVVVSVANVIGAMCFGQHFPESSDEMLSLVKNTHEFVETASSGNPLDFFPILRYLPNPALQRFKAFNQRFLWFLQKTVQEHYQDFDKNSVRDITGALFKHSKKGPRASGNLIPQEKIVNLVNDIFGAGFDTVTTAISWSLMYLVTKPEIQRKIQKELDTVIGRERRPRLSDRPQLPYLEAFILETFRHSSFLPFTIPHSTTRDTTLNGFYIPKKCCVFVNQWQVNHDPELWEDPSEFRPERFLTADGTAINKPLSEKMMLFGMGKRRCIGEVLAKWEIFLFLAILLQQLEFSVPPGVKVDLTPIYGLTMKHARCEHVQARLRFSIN

Test [4] deals with T1, Heat shock factor protein 1. In words: enhancement of HSF1-driven luciferase signal – cell-based, NIH3T3, luminescence, dose retest, confirmation (AID 435004).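 Also: stress induced by proteasome inhibitor MG132 added 30 min after compound; luciferase reporter driven by HSF1 response element in NIH3T3 cells; actives raise luminescence as potentiators of the MG132 stress response.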 The test is classed as functional.

Sequence of Cytochrome P450 3A4 (P08684 whole entry): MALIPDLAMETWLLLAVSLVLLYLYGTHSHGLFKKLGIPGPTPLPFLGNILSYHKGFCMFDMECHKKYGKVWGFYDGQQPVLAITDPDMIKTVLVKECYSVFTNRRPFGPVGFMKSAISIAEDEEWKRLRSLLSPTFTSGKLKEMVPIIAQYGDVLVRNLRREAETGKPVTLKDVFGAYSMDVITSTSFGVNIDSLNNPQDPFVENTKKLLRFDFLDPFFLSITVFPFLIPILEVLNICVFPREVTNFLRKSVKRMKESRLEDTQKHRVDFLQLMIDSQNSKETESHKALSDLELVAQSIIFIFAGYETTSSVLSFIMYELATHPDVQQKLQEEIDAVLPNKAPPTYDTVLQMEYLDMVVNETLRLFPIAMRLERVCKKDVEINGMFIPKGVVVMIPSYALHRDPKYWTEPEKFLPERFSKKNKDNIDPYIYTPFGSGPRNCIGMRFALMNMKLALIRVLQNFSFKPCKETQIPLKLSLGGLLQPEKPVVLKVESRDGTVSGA
Sequence of Cytochrome P450 2C9 (P11712 whole entry): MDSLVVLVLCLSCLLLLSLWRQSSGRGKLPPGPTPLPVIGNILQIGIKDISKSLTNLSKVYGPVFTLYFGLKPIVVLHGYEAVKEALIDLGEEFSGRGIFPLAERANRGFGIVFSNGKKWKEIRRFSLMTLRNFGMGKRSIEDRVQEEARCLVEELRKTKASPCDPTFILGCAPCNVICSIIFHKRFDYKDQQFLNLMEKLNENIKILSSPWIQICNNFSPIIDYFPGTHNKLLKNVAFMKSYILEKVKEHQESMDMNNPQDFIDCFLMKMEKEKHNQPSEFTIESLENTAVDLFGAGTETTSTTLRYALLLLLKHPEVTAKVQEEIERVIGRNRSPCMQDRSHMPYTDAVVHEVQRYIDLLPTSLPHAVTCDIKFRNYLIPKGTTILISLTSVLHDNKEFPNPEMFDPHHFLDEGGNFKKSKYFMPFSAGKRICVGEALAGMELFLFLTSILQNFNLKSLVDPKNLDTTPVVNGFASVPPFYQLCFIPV
Sequence of Cytochrome P450 2D6 (P10635 whole entry): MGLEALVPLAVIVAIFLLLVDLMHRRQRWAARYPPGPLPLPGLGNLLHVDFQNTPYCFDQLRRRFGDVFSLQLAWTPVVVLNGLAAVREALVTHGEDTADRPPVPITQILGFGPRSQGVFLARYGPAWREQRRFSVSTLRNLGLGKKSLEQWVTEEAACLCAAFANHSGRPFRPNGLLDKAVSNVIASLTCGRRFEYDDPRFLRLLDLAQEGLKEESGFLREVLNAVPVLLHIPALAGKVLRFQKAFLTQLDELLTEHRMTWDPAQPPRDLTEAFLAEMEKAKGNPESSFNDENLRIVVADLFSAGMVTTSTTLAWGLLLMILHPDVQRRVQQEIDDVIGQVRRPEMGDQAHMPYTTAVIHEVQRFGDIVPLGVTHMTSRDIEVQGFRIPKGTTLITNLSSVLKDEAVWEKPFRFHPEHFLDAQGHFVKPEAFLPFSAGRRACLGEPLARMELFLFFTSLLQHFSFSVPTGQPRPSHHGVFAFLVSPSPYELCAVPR

Regarding `COc1ccc(C)cc1NC(=O)C(=O)NNC(=O)COc1ccc(Cl)cc1`, the EC50 in test [1] is 14.8 µM (active).

Turning to `CC1Cc2ccccc2N1CC(=O)NC(=O)NCc1ccccc1` (stereo unspecified), in test [1], the EC50 is reported as > 195 µM (not active).

On to `CCOC(=O)c1cn2nc(Oc3cccc(F)c3)ccc2n1`, for which the EC50 in test [2] was > 53 µM (inactive). Moreover, in test [3], the IC50 is > 47.1 µM (inactive).

As for `Cc1c(C(=O)N2CC(C(=O)N3CCCCC3)Oc3ccccc32)oc2ccccc12` (stereo unspecified), the EC50 in test [2] was > 53 µM (inactive). In test [3], the IC50 is > 47.1 µM (inactive).

A word on the AC50: it is the concentration at which the activity in the assay is half-maximal. On to `C#CCCCC(=O)Nc1ccccc1`, for which the AC50 on Cytochrome P450 1A2 was 20 µM (inconclusive); at Cytochrome P450 3A4, 25.1 µM (inconclusive).

With `COc1ccc(-c2noc(C(=O)NCc3ccc(F)cc3)n2)cc1OC`, the EC50 in test [2] is > 53 µM (inactive). In addition, the IC50 in test [3] is > 47.1 µM (inactive).

For `CCOc1ccc(OCCSc2nc(N)cc(=O)[nH]2)cc1`, in test [2], the EC50 is > 53 µM (inactive). In addition, in test [3], the IC50 is > 47.1 µM (inactive).

For `CC(=O)Nc1c(C(=O)Nc2ccc3c(c2)OCO3)oc2ccccc12`, the EC50 in test [1] is reported as > 195 µM (not active).

Regarding `O=C(CSc1nnnn1CCCO)Nc1ccc2c(c1)OCO2`, the EC50 in test [1] is listed as > 195 µM (not active).

In the case of `Cc1ccc(/C=C2\Oc3cc(OC(=O)N4CCOCC4)ccc3C2=O)cc1`, the EC50 in test [4] was > 260 µM (inactive).

Regarding `CCCn1c(=O)c2[nH]c(C3CCCC3)nc2n(CCCOC(=O)c2ccc(S(=O)(=O)F)cc2)c1=O`, the AC50 at Cytochrome P450 2C9 and at Cytochrome P450 3A4 was 3.16 µM (inconclusive) throughout.

In the case of `NC(=NOC(=O)COc1ccc(Br)cc1)c1ccncc1`, the EC50 in test [2] was > 53 µM (inactive). Besides, the IC50 in test [3] is > 47.1 µM (inactive).

On to `COc1ccc(C(=O)/C=C2/C(=O)Nc3ccccc32)cc1OC`, for which, in test [4], the EC50 was > 260 µM (inactive).

Regarding `COc1cccc(C(=O)Nc2cc(C(=O)NCc3ccc(C)cc3)ccc2N2CCC3(CC2)CC(c2cccc(Br)c2)=NO3)c1`, the EC50 in test [2] is > 53 µM (inactive). In addition, the IC50 in test [3] was < 0.368 µM (active).

For the compound `CCC(=O)N1CCc2cc(S(=O)(=O)NCCC(=O)Nc3ccccc3C)ccc21`, in test [1], the EC50 was > 195 µM (not active).

With `NCCNS(=O)(=O)c1cccc2cnccc12`, the AC50 at Cytochrome P450 3A4 is 20 µM (inconclusive) and 39.8 µM (inconclusive); at Cytochrome P450 2D6, 7.94 µM (inconclusive) and 25.1 µM (inconclusive).

Turning to `CCCC[C@@H]1C[C@H]1[C@@H](NC(=O)c1ccco1)c1ccc(Cl)cc1`, the EC50 in test [1] was > 195 µM (not active).

With `O=C(CCCc1cccs1)Nc1ccc2c(c1)OCO2`, the EC50 in test [2] was > 53 µM (inactive). Further, in test [3], the IC50 is > 47.1 µM (inactive).

With `CCC(C)N(C(=O)C(F)(F)F)C(C(=O)NC1CCCCC1)c1ccncc1` (stereo unspecified), in test [1], the EC50 is > 195 µM (not active).

As for `CCCc1c(O)c2ccccc2n(-c2ccccc2)c1=O`, the half-maximal activity concentration (AC50) on Cytochrome P450 2C9 is 12.6 µM (inconclusive); at Cytochrome P450 3A4 it was 22.4 µM (inconclusive).

Consider `Cc1[nH]n(-c2ccccc2)c(=O)c1/C=N/CCc1ccccc1`, for which the EC50 in test [4] is 85.4 µM (active).

In the case of `CCC(=O)NCc1c(Cl)cccc1-n1cccc1`, the AC50 on Cytochrome P450 2C9 was 15.8 µM (inconclusive); at Cytochrome P450 3A4, 25.1 µM (inconclusive); on Cytochrome P450 2D6, 15.8 µM (inconclusive).

In the case of `C=CCNC(=O)c1c(C(F)(F)F)nn(C)c1Cl`, the EC50 in test [1] is given as > 195 µM (not active).

With `CCN(CC)CCCN1C(=O)c2oc3ccccc3c(=O)c2C1c1cccc(OC)c1OC` (stereo unspecified), the EC50 in test [4] was > 260 µM (inactive).

Consider `COc1ccc2nnc(-c3ccc(C(F)(F)F)cc3)n2n1`, for which, in test [1], the EC50 is on record as > 195 µM (not active).

`CC(C)(C)c1ccc(/C=C(\C#N)C(=O)Nc2ccccn2)cc1`: the EC50 in test [1] was > 195 µM (not active).

In the case of `COc1ccc(OC2C(=O)N(c3cc(C)ccc3C)C2c2ccc(OC)c(OC)c2)cc1` (stereo unspecified), the EC50 in test [2] is > 53 µM (inactive). In addition, the IC50 in test [3] was > 47.1 µM (inactive).

Regarding `CCC(C(=O)NCCN1CCOCC1)n1c2ccccc2c2nc(=O)cc(C)n21` (stereo unspecified), the EC50 in test [2] was > 53 µM (inactive). The IC50 in test [3] was > 47.1 µM (inactive).

For `CN(C)/C=C/C(=O)c1ccc(S(=O)(=O)c2ccccc2)cc1`, in test [1], the EC50 is > 195 µM (not active).

`CCOC(=O)c1c(CN2CCC(C)CC2)n(C)c2cc(Br)c(OC)cc12`: the EC50 in test [4] is > 260 µM (inactive).

For `OC(CNCc1ccc(F)cc1)(c1ccc(F)cc1)c1ccc(F)cc1`, the AC50 at Cytochrome P450 2C9 is 12.6 µM (inconclusive). In addition, the EC50 in test [4] was > 260 µM (inactive).

As for `Cc1ccc2[nH]c3c(c2c1)CCN(C)C3`, the EC50 in test [1] was > 195 µM (not active).

For the compound `COC(=O)CNC(c1ccccc1)c1cc(Br)ccc1N` (stereo unspecified), the EC50 in test [4] is > 260 µM (inactive).

On to `Cc1cc(O)nc(SCc2nc3ccccc3c(=O)n2-c2ccccc2C)n1`, for which the EC50 in test [4] is > 260 µM (inactive).

`Cc1ccc(S(=O)(=O)N2CCN(C(=O)COc3ccc(C)nc3[N+](=O)[O-])CC2)c(C)c1`: in test [2], the EC50 is > 53 µM (inactive). Moreover, the IC50 in test [3] is > 47.1 µM (inactive).

Turning to `O=C(N/N=C/CCc1ccccc1)c1ccccc1`, the EC50 in test [4] was > 260 µM (inactive).

For the compound `COc1ccc(OC)c(CN2CCN(S(=O)(=O)c3ccc(NC(C)=O)cc3)CC2)c1`, the EC50 in test [2] is > 53 µM (inactive). For the same compound, in test [3], the IC50 is > 47.1 µM (inactive).

Turning to `O=C(Nc1ccccn1)C1CCN(S(=O)(=O)c2ccc3ccccc3c2)CC1`, in test [2], the EC50 was > 53 µM (inactive). In addition, in test [3], the IC50 was > 47.1 µM (inactive).

For `CCOc1ccccc1N1CCN(C(=O)C2CSC3(C)CCC(=O)N23)CC1` (stereo unspecified), the EC50 in test [2] was > 53 µM (inactive). In addition, in test [3], the IC50 is > 47.1 µM (inactive).

In the case of `CCOC(=O)C1CCCN(CC(=O)Nc2c(C(=O)OC)[nH]c3ccccc23)C1` (stereo unspecified), the EC50 in test [4] is > 260 µM (inactive).

In the case of `CC(=O)OCCNC(=O)c1cccnc1`, the AC50 is 31.6 µM (inconclusive) at Cytochrome P450 1A2 and 20 µM (inconclusive) on Cytochrome P450 3A4.

With `Cc1nn(C(=O)c2c(-c3ccccc3)noc2C)c(C)c1N=Nc1cc(C(F)(F)F)cc(C(F)(F)F)c1`, in test [2], the EC50 is > 53 µM (inactive). Moreover, in test [3], the IC50 is > 47.1 µM (inactive).

`CCOC(=O)c1c(S(=O)(=O)N2CCCCC2C)c(C)n(C)c1C` (stereo unspecified): the EC50 in test [1] was > 195 µM (not active).

In the case of `Cc1onc(-c2ccccc2)c1C(=O)OCc1nnc(-c2ccccc2)o1`, the EC50 in test [4] was > 260 µM (inactive).

Take `CCC(C)[C@H](NC(=O)NCc1cccc(OC)c1)C(=O)O` (stereo partly specified): the EC50 in test [1] was > 195 µM (not active).

Take `Brc1ccc(-c2noc(CCc3ccccc3)n2)o1`: the EC50 in test [2] is > 53 µM (inactive). The IC50 in test [3] is > 47.1 µM (inactive).

With `O=C(NCCN1CCCCC1)Nc1ccccc1Cl`, in test [1], the EC50 is listed as > 195 µM (not active).

As for `O=C(COc1ccc(Cl)cc1)N1CCCC1`, the EC50 in test [1] is given as > 195 µM (not active).
